Legend:
[1] = molecular target: T1, ERα (Homo sapiens, UniProt P03372); experiment: Radioligand binding assay, [3H] Estradiol displacement; conditions: 0.5 nM [3H] Estradiol; 0.1 μM to 100 μM
T1 construct: purchased Ricera Biosciences, LLC (contract assay)
T1 sequence (P03372 1-595): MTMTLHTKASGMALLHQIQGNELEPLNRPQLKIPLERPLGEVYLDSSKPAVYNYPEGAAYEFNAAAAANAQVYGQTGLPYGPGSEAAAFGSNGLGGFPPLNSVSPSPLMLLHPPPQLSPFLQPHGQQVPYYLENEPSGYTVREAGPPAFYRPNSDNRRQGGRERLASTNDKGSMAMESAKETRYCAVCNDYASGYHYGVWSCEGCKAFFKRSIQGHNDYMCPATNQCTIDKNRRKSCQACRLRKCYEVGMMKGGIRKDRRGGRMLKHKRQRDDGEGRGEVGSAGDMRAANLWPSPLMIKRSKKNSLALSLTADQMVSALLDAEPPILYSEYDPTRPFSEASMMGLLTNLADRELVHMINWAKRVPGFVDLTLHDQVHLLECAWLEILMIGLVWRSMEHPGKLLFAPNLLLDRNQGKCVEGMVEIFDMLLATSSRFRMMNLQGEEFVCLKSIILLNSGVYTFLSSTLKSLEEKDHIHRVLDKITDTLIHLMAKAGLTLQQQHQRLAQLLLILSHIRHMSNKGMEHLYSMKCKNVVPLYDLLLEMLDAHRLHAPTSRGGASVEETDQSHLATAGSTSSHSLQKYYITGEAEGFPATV

[2] = molecular target: T2, ERβ (Homo sapiens, UniProt Q92731); experiment: as above; conditions: 0.5 nM [3H] Estradiol; 0.1 μM to 100 μM
T2 construct: purchased Ricera Biosciences, LLC (contract assay)

[3] = system: MCF7-TGL cells; conditions: for decrease in whole body luminescence: day 11
Protocol: Tumor studies. […] Briefly, 10^6 MCF7-TGL cells stably expressing a triple fusion of thymidine kinase, GLP and luciferase (SFG-NES-TGL retroviral vector) for IVIS imaging purposes were mixed with Matrigel (BD Biosciences) and injected into the fourth inguinal mammary fat pad of female, ovariectomized athymic nu/nu or non-obese diabetic (NOD)/SCID mice (Taconic). At time of tumor injection, E2 pellets (60-day release, 1.5 mg/pellet, Innovative Research of America) or DHT (8 mg/pellet, packed and sealed in silastic tubing) were implanted subcutaneously (SQ) at the back of the neck. Tumor burden was assessed using in vivo imaging system (IVIS) or caliper measurements. Once the tumors had established, the mice were matched into groups on the basis of total tumor burden as measured by IVIS or caliper. […] The feed was irradiated and stored at 4° C. before use. […] All mice were given free access to MDV3100 mixed with chow or control chow during the entire study period and at an average of 3.5 g/day food intake. Feed was changed in the animal cages twice a week. Water and feed were prepared ad libitum. Two hours prior to sacrifice, mice were injected IP with 50 mg/kg BrDU (Sigma-Aldrich). Mice were euthanized by CO2 asphyxiation followed by cervical dislocation and blood, tumors, colon, uteri and mammary glands were harvested.
Immunohistochemistry. Slides were deparaffinized in a series of xylenes and ethanols and antigens were heat retrieved in either 10 mM citrate buffer pH 6.0 (BrdU, Ki67) or 10 mM Tris/1 mM EDTA buffer at pH 9.0 (AR, ER, caspase 3). Tissue for BrdU was incubated in 2N HCl followed by 0.1M sodium borate following antigen retrieval. […] Envision-HRP (Dakocytomation) was used for antibody detection. TUNEL staining for apoptosis was performed using the ApopTag Plus Peroxidase In Situ Apoptosis Detection Kit (Millipore), as per manufacturer's instructions. […] For BrdU and TUNEL staining in xenograft studies, three separate 200× fields of each xenograft tumor were taken using an Olympus BX40 microscope (Center Valley, Pa.) with a SPOT Insight Mosaic 4.2 camera and software (Diagnostic Instruments, Inc., Sterling Heights, Mich.). A color threshold (RGB for positive staining nuclei, and HSB for total nuclei) was adjusted manually using ImageJ (National Institutes of Health) for each image, and particles created by the thresholds were analyzed for total area. RGB area was divided by HSB area and multiplied by 100 for each image. For analysis of the nuclear androgen receptor, cleaved caspase 3 and Ki67, slides were scanned at 20× on an Aperio Scan ScanScope XT. Mammary tumor tissue was traced separately for each tumor and necrotic areas of the tumor removed using a negative pen tool in Aperio's Scanscope software. A Nuclear Algorithm was utilized to measure the percent positive cells for the Ki-67 and Androgen Receptor stained slides and the data exported. Cleaved Caspase 3 stained slides were analyzed using a modified Positive Pixel Count algorithm.

[4] = system: AR-dependent MMTV-luciferase reporter; experiment: Luciferase assay in MDA-kb2 cells; assay type: cell-based, human; conditions: Enza 10, 1, 0.1 μM, DHT, 24 h
Protocol: Luciferase Assays. MDA-kb2 cells were plated at 5×10^3 cells/well in 96-well luminescence plates and incubated overnight. Cells were treated with 10-fold serial dilutions of Enza (10, 1, 0.1 μM) and DHT (10, 1, 0.1, 0.01, 0.001 nM) that were prepared in DMSO. Following 24 h of incubation, the luminescence levels were determined with the luciferase assay system (Promega). Three independent experiments were performed and the luminescence values were determined as relative units (R.U.) and normalized to vehicle. Values were expressed as the mean fold induction±standard error (SE).

[5] = system: PR, SDF-1; experiment: qPCR of estrogen responsive genes PR and SDF-1; assay type: cell-based
Protocol: For FASN, PRLR and GCDFP-15, SYBR green quantitative gene expression analysis was performed using the following primers: FASN [NT] ID NO: 1), FASN […] ID NO: 2); PRLR [NT] ID NO: 3), PRLR […] ID NO: 4); […] ID NO: 5), […] ID NO: 6); 18[…] ID NO: 7), 18[…] ID NO: 8). For PR and SDF-1, taqman real time PCR was performed using validated primer/probe sets from Applied Biosystems (assay IDs: PR Hs01556702_ml, SDF-1 Hs00171022 ml, 18S Hs99999901_sl). Relative gene expression was calculated using the comparative Ct method and values were normalized to 18S.

[6] = system: breast cancer; experiment: Tamoxifen study: adjuvant tamoxifen cohort, Kaplan-Meier by AR:ER ratio; assay type: in vivo, female patients
[7] = E2 pellet, chow 50 mg/kg enzalutamide or tamoxifen pellet

T2 sequence (Q92731 whole entry): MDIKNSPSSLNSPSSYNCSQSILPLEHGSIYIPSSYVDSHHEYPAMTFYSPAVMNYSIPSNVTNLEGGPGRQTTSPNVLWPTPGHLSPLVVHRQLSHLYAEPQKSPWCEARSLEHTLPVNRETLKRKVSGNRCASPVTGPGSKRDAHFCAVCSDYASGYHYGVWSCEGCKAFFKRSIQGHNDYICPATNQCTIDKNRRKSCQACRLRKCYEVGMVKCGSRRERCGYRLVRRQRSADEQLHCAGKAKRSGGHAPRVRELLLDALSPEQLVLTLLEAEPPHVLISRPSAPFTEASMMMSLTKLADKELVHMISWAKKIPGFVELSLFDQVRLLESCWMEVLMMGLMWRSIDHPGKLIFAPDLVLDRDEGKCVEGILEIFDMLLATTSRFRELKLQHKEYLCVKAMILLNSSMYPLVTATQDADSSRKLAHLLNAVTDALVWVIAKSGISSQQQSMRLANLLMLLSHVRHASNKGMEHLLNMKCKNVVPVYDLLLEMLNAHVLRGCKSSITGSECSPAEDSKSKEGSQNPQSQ

| Structure (SMILES) | binding to ERα [1] | binding to ERβ [2] | decrease in AR nuclear localization in tumors ([3]; DHT pellet, chow 50 mg/kg) [%] | increase in apoptotic cells (TUNEL staining) ([3]; DHT pellet, chow 50 mg/kg) [%] | decrease in luminescence as compared to the DHT group ([3]; DHT pellet, chow containing 50 mg/kg enzalutamide, day 19, IVIS) [%] | tumor burden ([3]; DHT pellet, enzalutamide by oral gavage) | apoptosis under E2-stimulated growth conditions ([3]; E2 pellet) | decrease in whole body luminescence [3, 7] [%] | activation of androgen responsive luciferase reporter [4] | E2-induced upregulation of PR and SDF-1 mRNA [5] | decrease in cell proliferation compared to the E2 group (BrdU incorporation) [3, 7] [%] | mean time to failure ([6]; AR:ER<1.3) | median time to failure ([6]; AR:ER<1.3) [months] | median time to failure ([6]; AR:ER>=1.3) | mean time to failure ([6]; higher AR:ER ratio group (cut point 1.3)) |
| --- | --- | --- | --- | --- | --- | --- | --- | --- | --- | --- | --- | --- | --- | --- | --- |
| CNC(=O)c1ccc(N2C(=S)N(c3ccc(C#N)c(C(F)(F)F)c3)C(=O)C2(C)C)cc1F [enzalutamide] | did not significantly bind | did not significantly bind | 92.5 | 50 | 83.2 | decreased in a dose dependent manner | did not induce apoptosis | 70.3 | inhibited activation of the luciferase construct in a dose dependent manner | inhibited |  |  |  |  |  |
| CC/C(=C(\c1ccccc1)c1ccc(OCCN(C)C)cc1)c1ccccc1 [tamoxifen] |  |  |  |  |  |  |  | 59.9 |  |  | 46.4 | 45+/−2.3 months | > 120 | 30+/−2 months | 29+/−4.3 months |

From patent US11221334B2, “Method for determining breast cancer treatment” (THE REGENTS OF THE UNIVERSITY OF COLORADO, A BODY CORPORATE, priority 2012, dated 2022)
